In patent US20260176289A1, “SMALL MOLECULE INHIBITORS OF KRAS PROTEINS” (Merck Sharp & Dohme LLC, priority 2022, published 2026):
Where two headings read alike, the source gives them in different places.

What was measured:
SW620 cells = test: Cellular phospho-ERK assay, SW620 cells (homozygous KRAS-G12V); type: cell-based; settings: Homo sapiens, read-out: SW620 pERK IC50
Outline: (§1)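 p-ERK/total ERK ratio, measured by AlphaLISA SureFire Ultra multiplex in lysates, was fitted to a 4-parameter logistic model for IC50. Compound exposure was 2 h at 37° C, 5% CO2, 10-point 1:3 dilutions from 30 μM final, on cells plated the previous night.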

MKN-1 cells = test: Cellular phospho-ERK assay, MKN-1 cells (amplified wild-type KRAS); type: cell-based; settings: Homo sapiens, read-out: MKN1 pERK IC50
Outline: as §1

HRAS = HRAS (Homo sapiens, UniProt P01112); test: SOS-catalyzed nucleotide exchange assay (Procedure A, TR-FRET), HRAS; type: biochemical; settings: read-out: HRAS GNE IC50
Description: Procedure for SOS-Catalyzed Nucleotide Exchange Assay for KRAS-WT, G12C/D/V, G13D, HRAS, and NRAS (Procedure A)
Recombinant KRAS-G12C protein used in this assay has an additional triple mutation (C51S/C80L/C118S). Whereas KRAS-WT, G12D/V, G13D, HRAS and NRAS are in context of their WT protein sequence background. Specifically, the SOS-catalyzed nucleotide exchange assay utilizes a preformed TR-FRET complex containing a specific biotinylated RAS protein (KRAS-WT, G12C/V/D, G13D, HRAS, NRAS; described above) with Bodipy-GDP, and Terbium-streptavidin. Compounds are preincubated with this complex for 60 minutes. Subsequently, recombinant human SOS protein and unlabeled GTP are added to initiate the exchange reaction. Small molecule inhibitors stabilize the Bodipy-GDP complex whereas the untreated protein rapidly exchanges Bodipy-GDP for unlabeled GTP resulting in reduced TR-FRET signal.
To assemble the preformed TR-FRET complexes, each biotinylated RAS protein is diluted to 2 μM in an EDTA Buffer (20 mM HEPES pH 7.5, 50 mM sodium chloride, 10 mM EDTA, and 0.01% Tween) and incubated at room temperature for one hour. This mixture is then further diluted to 90 nM in an Assay Buffer (20 mM HEPES pH 7.5, 150 mM sodium chloride, 10 mM magnesium chloride, and 0.005% Tween) containing 15 nM of Terbium-Streptavidin (Invitrogen, catalog #PV3577) and 900 nM of Bodipy-GDP (Invitrogen, catalog #G22360) and incubated at room temperature for six hours. It should be noted that this preformed TR-FRET complex for each of the RAS protein were made ahead of time, aliquoted and stored at −80° C. until the day of the experiment.
Each test compound (10 mM stock in DMSO) is diluted in DMSO to make a final-10-point, 3-fold dilution and is acoustically dispensed into a 384-well assay plate (Corning, catalog #3820) using an Echo 550 (Labcyte). Each well of the assay plate receives 3 μL of a specific 3×RAS preformed TR-FRET complex and 3 μL of Assay Buffer and is incubated at room temperature for 60 minutes (preincubation time). Each well then receives 3 μL of 3×recombinant human SOS protein and GTP (Sigma, G8877) in Assay Buffer and is incubated at room temperature for 30 minutes (G13D), 60 minutes (KRAS WT/G12C/D, H/NRAS) or 90 minutes for G12V. The final reaction in each well of 9 μL consists of 3 mM GTP, specific Ras and SOS proteins in the following concentrations: KRAS-G12C/SOS=3 nM/40 nM, KRAS-WT and G12D/SOS=1 nM/40 nM, KRAS-G12V/SOS=1.25 nM/160 nM. KRAS-G13D/SOS=1.25 nM/0 nM, HRAS and NRAS=1.25 nM/40 nM.
The time-resolved fluorescence resonance energy transfer (TR-FRET) signal is measured on an Envision (PerkinElmer) plate reader: Excitation filter=340 nm; emission 1=495 nm; emission2=520 nm; dichroic mirror=D400/D505; delay time=[…]. The signal of each well is determined as the ratio of the emission at 520 nm to that at 495 nm. Percent effect of each well is determined after normalization to control wells containing DMSO (no effect) or a saturating concentration of inhibitor (max effect). The apparent effect as a function of compound concentration is fit to a four-parameter logistic equation.

[1] = target: KRAS-G12C (C51S/C80L/C118S) (Homo sapiens, UniProt P01116, C118S/C51S/C80L/G12C); test: SOS-catalyzed nucleotide exchange assay (Procedure A, TR-FRET), KRAS-G12C; type: biochemical; settings: nucleotide exchange, Procedure A; read-out: KRAS G12C GNE IC50
Outline: (§2)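 Biotinylated RAS (KRAS-G12C carries C51S/C80L/C118S; others WT background) preloaded with Bodipy-GDP plus Tb-streptavidin, preincubated with compound 60 min at RT, then human SOS and 3 mM GTP added. Final RAS/SOS: G12C 3 nM/40 nM, 60 min; WT 1 nM/40 nM, 60 min; G12V 1.25 nM/160 nM, 90 min; NRAS 1.25 nM/40 nM, 60 min. TR-FRET 520/495 ratio normalized to DMSO and saturating inhibitor; 10-point curves fit four-parameter logistic.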

KRAS-G12D = KRAS-G12D (Homo sapiens, UniProt P01116, G12D); test: SOS-catalyzed nucleotide exchange assay (Procedure A, TR-FRET), KRAS-G12D; type: biochemical; settings: nucleotide exchange, read-out: KRAS G12D GNE IC50
Outline: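 Signal ratio (520/495 nm, excitation 340 nm) reports Bodipy-GDP retention on biotinylated RAS after SOS-catalyzed exchange with 3 mM GTP. SOS was 40 nM, except 160 nM for G12V. Room-temperature exchange lasted 60 min (90 min for G12V), following a 60 min compound preincubation.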

KRAS-WT = KRAS-WT (Homo sapiens, UniProt P01116); test: SOS-catalyzed nucleotide exchange assay (Procedure A, TR-FRET), KRAS-WT; type: biochemical; settings: nucleotide exchange, read-out: KRAS WT GNE IC50
Outline: as §2

AsPC-1 cells = test: Cellular phospho-ERK assay, AsPC-1 cells (homozygous KRAS-G12D); type: cell-based; settings: Homo sapiens, ASPC1, 2 h, read-out: AsPC1 pERK IC50
Outline: as §1

KRAS-G13D = KRAS-G13D (Homo sapiens, UniProt P01116, G13D); test: SOS-catalyzed nucleotide exchange assay (Procedure A, TR-FRET), KRAS-G13D; type: biochemical; settings: nucleotide exchange, Procedure A; read-out: KRAS G13D GNE IC50
KRAS-G12V = KRAS-G12V (Homo sapiens, UniProt P01116, G12V); test: SOS-catalyzed nucleotide exchange assay (Procedure A, TR-FRET), KRAS-G12V; type: biochemical; settings: nucleotide exchange, read-out: KRAS G12V GNE IC50
Outline: as §2

[2] = SW-620, 2 hours compound incubation

KRAS-G12V, sequence (P01116 with tags, fused parts or gaps isoform P01116-2 G12V): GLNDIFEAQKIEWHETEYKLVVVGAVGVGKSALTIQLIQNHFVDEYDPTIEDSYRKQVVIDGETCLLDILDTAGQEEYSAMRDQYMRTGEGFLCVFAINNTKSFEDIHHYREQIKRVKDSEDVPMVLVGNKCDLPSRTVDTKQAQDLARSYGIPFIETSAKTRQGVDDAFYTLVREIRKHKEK
HRAS, sequence (P01112 with tags, fused parts or gaps): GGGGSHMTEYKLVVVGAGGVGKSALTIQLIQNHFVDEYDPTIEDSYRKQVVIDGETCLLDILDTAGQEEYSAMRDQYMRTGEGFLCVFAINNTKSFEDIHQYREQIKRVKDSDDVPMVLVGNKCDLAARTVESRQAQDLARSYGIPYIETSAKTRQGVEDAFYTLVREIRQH
KRAS-G13D, sequence (P01116 with tags, fused parts or gaps isoform P01116-2 G13D): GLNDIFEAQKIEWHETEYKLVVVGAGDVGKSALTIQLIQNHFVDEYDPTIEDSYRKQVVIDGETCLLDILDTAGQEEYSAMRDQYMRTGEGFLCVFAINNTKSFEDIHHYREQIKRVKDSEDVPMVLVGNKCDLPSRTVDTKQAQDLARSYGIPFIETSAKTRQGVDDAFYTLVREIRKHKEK
KRAS-G12C (C51S/C80L/C118S), sequence (P01116 with tags, fused parts or gaps isoform P01116-2 G12C/C51S/C80L/C118S): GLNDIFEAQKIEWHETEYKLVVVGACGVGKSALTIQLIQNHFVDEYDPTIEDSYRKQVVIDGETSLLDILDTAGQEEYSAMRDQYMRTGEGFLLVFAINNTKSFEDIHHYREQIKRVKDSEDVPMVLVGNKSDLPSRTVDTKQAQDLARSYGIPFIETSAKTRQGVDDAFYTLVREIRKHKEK
KRAS-G12D, sequence (P01116 with tags, fused parts or gaps isoform P01116-2 G12D): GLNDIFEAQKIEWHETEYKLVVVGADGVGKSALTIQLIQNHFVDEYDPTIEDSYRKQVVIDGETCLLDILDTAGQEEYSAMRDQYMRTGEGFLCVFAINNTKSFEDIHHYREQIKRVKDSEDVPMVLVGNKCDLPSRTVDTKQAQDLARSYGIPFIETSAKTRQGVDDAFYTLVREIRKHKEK
KRAS-WT, sequence (P01116 with tags, fused parts or gaps isoform P01116-2): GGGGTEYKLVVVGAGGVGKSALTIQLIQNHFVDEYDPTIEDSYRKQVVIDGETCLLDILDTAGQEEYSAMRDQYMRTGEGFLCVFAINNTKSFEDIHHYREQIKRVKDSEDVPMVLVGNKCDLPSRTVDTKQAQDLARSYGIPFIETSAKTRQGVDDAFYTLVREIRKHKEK

| Structure (SMILES) | IC50 (SW620 cells; [2]) | IC50 (MKN-1 cells; 2 hours compound incubation) | IC50 (HRAS) | IC50 [1] | IC50 (KRAS-G12D) | IC50 (KRAS-WT) | IC50 (AsPC-1 cells; 2 hours compound incubation) | IC50 (KRAS-G13D) | IC50 (KRAS-G12V) | IC50 (SW620 cells; SW-620, KRAS-G12V, 2 hours) | IC50 (MKN-1 cells; amplified wild-type KRAS, 2 hours) | IC50 (AsPC-1 cells; KRAS-G12D, 2 hours) |
| --- | --- | --- | --- | --- | --- | --- | --- | --- | --- | --- | --- | --- |
| COC1(C)CN(C[C@@]2(COc3nc(N4CCOC[C@@](C)(O)C4)c4c(n3)sc3c(-c5c(C6(F)CC6)c(Cl)cc6[nH]ncc56)nccc34)CC2(F)F)C1 [Ex-240, (6S)-4-(8-(6-chloro-5-(1-fluorocyclopropyl)-1H-indazol-4-yl)-2-(((R)-2,2-difluoro-1-((3-methoxy-3-methylazetidin-1-yl)methyl)cyclopropyl)metho-xy)pyrido[4′,3′:4,5]thieno[2,3-d]pyrimidin-4-yl)-6-methyl-1,4-oxazepan-6-ol] | 36.1 nM | 39.3 nM | 2220 nM | 19.4 nM | 4.31 nM | 20 nM | 58.8 nM | 45.8 nM | 10.4 nM | – | – | – |
| CCc1c(F)ccc2cc3[nH]ncc3c(-c3nccc4c3sc3nc(OC[C@@]56CCCN5C[C@H](F)C6)nc(N5CCOC[C@@](C)(O)C5)c34)c12 [Ex-167, (6S)-4-(8-(5-ethyl-6-fluoro-1H-benzo[f]indazol-4-yl)-2-(((2R,7aS)-2-fluorotetrahydro-1H-pyrrolizin-7a(5H)-yl)methoxy)pyrido[4′,3′:4,5]thieno[2,3-d]pyrimidin-4-yl)-6-methyl-1,4-oxazepan-6-ol] | 8.1 nM | 16.1 nM | 10300 nM | 23.3 nM | 3.28 nM | 5 nM | 23.4 nM | 10.1 nM | 4.82 nM | – | – | – |
| C[C@@]1(O)COCCN(c2nc(OC[C@]3(CN4CC5(CCCOC5)C4)CC3(F)F)nc3sc4c(-c5c(C6(F)CC6)c(Cl)cc6[nH]ncc56)nccc4c23)C1 [Ex-249, (6S)-4-(2-(((R)-1-((6-oxa-2-azaspiro[3.5]nonan-2-yl)methyl)-2,2-difluorocyclopropyl)methoxy)-8-(6-chloro-5-(1-fluorocyclopropyl)-1H-indazol-4-yl)pyrido[4′,3′:4,5]thieno[2,3-d]pyrimidin-4-yl)-6-methyl-1,4-oxazepan-6-ol] | 51.2 nM | 36.5 nM | 943 nM | 11.4 nM | 2.69 nM | 20.2 nM | 73.8 nM | 21.3 nM | 15.5 nM | – | – | – |
| CCC1c2c(cc3[nH]ncc3c2-c2nccc3c2sc2nc(OC[C@@]45CCCN4C/C(=C\F)C5)nc(N4CCOC[C@@](C)(O)C4)c23)CC1(F)F (single isomer, unassigned) [Ex-109] | – | – | 8060 nM | 34.2 nM | 4.33 nM | 6.12 nM | – | 4.73 nM | 5.48 nM | 18.8 nM | 15.5 nM | 38.4 nM |
| CCC1CCc2cc3[nH]ncc3c(-c3nccc4c3sc3nc(OC[C@@]56CCCN5C[C@H](F)C6)nc(N5CCOC[C@@](C)(O)C5)c34)c21 (stereo partly drawn) [Ex-169, (6S)-4-(8-(5-ethyl-1,5,6,7-tetrahydro-cyclopenta[f]indazol-4-yl)-2-(((2R,7aS)-2-fluorotetrahydro-1H-pyrrolizin-7a(5H)-yl)methoxy)pyrido [4′,3′:4,5]thieno[2,3-d]pyrimidin-4-yl)-6-methyl-1,4-oxaze-pan-6-ol] | 25.8 nM | 21.2 nM | 9790 nM | 15.5 nM | 2.22 nM | 7.7 nM | 30.9 nM | 7.05 nM | 13.5 nM | – | – | – |
| CN1CCC[C@@]2(COc3nc(N4CCOC[C@@](C)(O)C4)c4c(n3)sc3c(-c5c(C6CC6)c(C(F)(F)F)cc6[nH]ncc56)nccc34)CCC[C@@H]12 [Ex-205, (6S)-4-(8-(5-cyclopropyl-6-(trifluoromethyl)-1H-indazol-4-yl)-2-(((4aS,7aR)-1-methyloctahydro-4aH-cyclopenta[b]pyridin-4a-yl)methoxy)pyrido[4′,3′:4,5]thieno[2,3-d]pyrimidin-4-yl)-6-methyl-1,4-oxazepan-6-ol] | 15.1 nM | 17 nM | 5090 nM | 40.1 nM | 1.69 nM | 3.94 nM | 22.3 nM | 10.7 nM | 4.42 nM | – | – | – |
| C#Cc1c(F)ccc2cc3[nH]ncc3c(-c3nccc4c3sc3nc(OC[C@@]56CCCN5C[C@H](F)C6)nc(N5CCOC[C@@](C)(O)C5)c34)c12 [Ex-160, (6S)-4-(8-(5-ethynyl-6-fluoro-1H-benzo[f]indazol-4-yl)-2-(((2R,7aS)-2-fluorotetrahydro-1H-pyrrolizin-7a(5H)-yl)methoxy)pyrido[4′,3′:4,5]thieno[2,3-d]pyrimidin-4-yl)-6-methyl-1,4-oxazepan-6-ol] | 7.87 nM | 19.9 nM | 5540 nM | 53.2 nM | 2.43 nM | 4.41 nM | 18.9 nM | 4.55 nM | 5.25 nM | – | – | – |
| C[C@@]1(O)COCCN(c2nc(OC[C@]3(CN4CC5(CCOC5)C4)CC3(F)F)nc3sc4c(-c5c(C6(F)CC6)c(Cl)cc6[nH]ncc56)nccc4c23)C1 [Ex-245, (6S)-4-(2-(((R)-1-((6-oxa-2-azaspiro[3.4]octan-2-yl)methyl)-2,2-difluorocyclopropyl)methoxy)-8-(6-chloro-5-(1-fluorocyclopropyl)-1H-indazol-4-yl)pyrido[4′,3′:4,5]thieno[2,3-d)pyrimidin-4-yl)-6-methyl-1,4-oxazepan-6-ol] | 47.6 nM | 44 nM | 1290 nM | 19.1 nM | 4.22 nM | 18.5 nM | 70.4 nM | 15.9 nM | 12.9 nM | – | – | – |
